In brackets after ≈: the same amount, converted by molar mass. Entries after “also recorded” stand apart in the source; their conditions may differ. Where two headings read alike, the source gives them in different places.
Tests used:
fibroblast L929 cells = assay: Cytotoxicity assay by MTT; type: cell-based; details: Mus musculus, fibroblast L929 cell line, 24 h
Description: MTT was applied to evaluate the cytotoxicity of the newly synthesized compounds against fibroblast L929 cells (Pasteur Institute, Tehran, Iran). Briefly, 100 μl of cell suspension (1 × 10^4 cells/well) in RPMI 1640 medium, as seeded in 96-well microplates and incubated for 24 h (37 °C, 5% CO2 air humidified). After removing the old media, 100 µl of each of the newly synthesized compounds was added to each well at different concentrations. The plates were incubated for another 24 h in the same condition. To determine the positive and negative controls, doxorubicin and DMSO were used. Cell survival was determined by adding 10 µL of an MTT solution (5 mg/ml in PBS) to each well and incubating at 37 °C for 3 h. The previous MTT-containing media was then removed, and 100 µL DMSO was pipetted into each well to dissolve the produced formazan crystals. Using an ELISA plate reader (Startfix-2100, Awareness, USA), absorbance was measured at 570 nm. By plotting the percentage of cytotoxicity versus concentration of the produced compounds, the concentrations that inhibit half of the cell population (IC50) were determined. A mean and standard deviation (SD) are used to represent the results. The percentage cell viability was calculated using the formula: Viability=Absorbance \, of \, treated \, cells-background \, absorbance(b)/Absorbance \, of \, untreated \, cells(c)-background \, absorbance(b)×100 where (b) = blank, and (c) = control.

S. aureus ATCC 25923 = assay: Broth microdilution MIC; type: cell-based; details: for MIC effect on S. aureus: SAR effect diagram, Table 6; for MIC: Staphylococcus aureus, ATCC25923
Description: (§1) A broth microdilution method was utilized to explore the minimum inhibitory concentrations (MIC) of all the newly synthesized compounds against E. coli ATCC 25922 and S. aureus ATCC 25923. Test compounds were prepared using dimethyl sulfoxide (DMSO) as a stock solution, followed by serial dilutions in Mueller Hinton broth containing up to one percent DMSO. At the end, a diluted bacterial suspension from a 0.5 McFarland tube was added to all the wells (the final volume of each well was 1 × 10^5 CFU/ml). In the growth control, a culture medium with bacteria was used as a positive control, and a culture medium without bacteria was used as a negative control (sterility control). The MIC was the lowest concentration of the synthesized compounds that produced no growth on the plate. Sulfisoxazole, functioning as a sulfonamide antibiotic, and gentamicin were employed in a comparative analysis of antibacterial activity, cytotoxicity, and apoptosis assessment.

E. coli ATCC 25922 = assay: Broth microdilution MIC; type: cell-based; details: for MIC: Escherichia coli, ATCC25922; for MIC effect on E. coli: SAR effect diagram
Description: as §1

[1] = test system: fibroblast L929 cell line; assay: Apoptosis Annexin V binding assay (flow cytometry); type: cell-based; details: for induced cell death: L929 cells, 24 h, IC50 concentration of each compound; for apoptotic effects: at the IC50 concentration
Description: (§2) To detect apoptosis, the Annexin V binding assay was used. The assay was performed according to the manufacturer's instructions using a FITC Annexin V Apoptosis Detection Kit with PI from BioLegend® (San Diego, California). To conduct this test, the fibroblast L929 cell line (Pasteur Institute, Tehran, Iran) was treated with various concentrations of the newly synthesized compounds and then incubated for 24 h at 37 °C with 5% CO2. Subsequently, each well's supernatant was removed and the cells were washed with PBS. Each well was then filled with 500 μl of Annexin-binding buffer (10 mM HEPES, 140 mM NaCl, and 2.5 mM CaCl2, pH 7.4) and 10 μl of Annexin V and PI. For 15 min, the plates were incubated at room temperature and kept away from light. After incubation, using a BD FACSCalibur flow cytometer (Biosciences, San Jose, CA, USA), the cells were examined after incubation. FlowJo software (version 10.5.3, TreeStar Incorporated, Ashland, OR) was used to analyze flow cytometry data.

[2] = Apoptosis Annexin V binding assay (flow cytometry); type: cell-based; details: mouse, L929 fibroblast cells; L929, IC50 concentration, Annexin V-FITC/PI
Description: as §2

[3] = Table 7, read-out: MIC for S. aureus
[4] = microdilution method, read-out: Minimum inhibitory concentrations (MIC) S. aureus ATCC 25923
[5] = Table 6, antibacterial activity against E. coli, read-out: MIC for E. coli ATCC 25922
[6] = microdilution method, read-out: Minimum inhibitory concentrations (MIC) E. coli ATCC 25922

Row | Structure (SMILES) | IC50 (fibroblast L929 cells) [µg/mL] | antibacterial effect on S. aureus (MIC results) (S. aureus ATCC 25923) | MIC effect on S. aureus (S. aureus ATCC 25923) | MIC (S. aureus ATCC 25923; [3]) [µg/mL] | MIC (S. aureus ATCC 25923; [4]) [µg/mL] | antibacterial effect on E. coli (MIC results) (E. coli ATCC 25922) | MIC (E. coli ATCC 25922; [5]) [µg/mL] | MIC (E. coli ATCC 25922; [6]) [µg/mL] | MIC effect on E. coli (E. coli ATCC 25922) | induced cell death [1] [%] | viability at 24 h [2] [%] | melting point [°C] | apoptotic effects [1]
1 | CC(=O)Nc1ccc(S(=O)(=O)Nc2ccc3c(c2)OC(N)=C(C#N)C3c2ccc(Cl)cc2)cc1 (centres unmarked) [8b, N-[4-[2-amino-3-cyano-4-(4-chloro-phenyl)-4H-chromene-7-ylsulfamoyl]-phenyl}-acetamide] | 90 (≈ 182 µM) | robust antibacterial effect | Positive | 32 (≈ 64.7 µM) | 32 (≈ 64.7 µM) | robust antibacterial effect | 64 (≈ 129 µM) | 64 (≈ 129 µM) | Positive | 56.8 | 43.2 | – | –
2 | COc1ccccc1C1C(C#N)=C(N)Oc2cc(NS(=O)(=O)c3ccc(C)cc3)ccc21 (centres unmarked) [2b, N-[2-amino-3-cyano-4-(2-methoxy-phenyl)-4H-chromene-7-yl]-4-methyl-benzene sulfonamide] | 229 (≈ 512 µM) | – | Negative | > 512 | > 512 | – | 128 (≈ 286 µM) | 128 (≈ 286 µM) | Positive | – | – | 180 to 183 | –
3 | COc1ccc(C2C(C#N)=C(N)Oc3cc(NS(=O)(=O)c4ccc(C)cc4)ccc32)cc1 (centres unmarked) [1b, N-[2-amino-3-cyano-4-(4-methoxy-phenyl)-4H-chromene-7-yl]-4-methyl-benzene sulfonamide] | 139 (≈ 311 µM) | – | Negative | > 512 | > 512 | – | 256 (≈ 572 µM) | 256 (≈ 572 µM) | Neutral | 42.29 | 55 | – | –
4 | CNC(C)C1CCC(N)C(OC2C(N)CC(N)C(OC3OCC(C)(O)C(NC)C3O)C2O)O1 (centres unmarked) [Gentamicin, reference compound] | 182 (≈ 381 µM) | – | – | – | 4 (≈ 8.38 µM) | – | – | 4 (≈ 8.38 µM) | – | – | – | – | neither Sulfisoxazole nor Gentamicin demonstrated apoptotic effects
5 | Cc1ccc(S(=O)(=O)Nc2ccc3c(c2)OC(N)=C(C#N)C3c2ccc(Cl)cc2)cc1 (centres unmarked) [4b, N-[2-amino-3-cyano-4-(4-chloro-phenyl)-4H-chromene-7-yl]-4-methyl-benzene sulfonamide] | 152 (≈ 336 µM) | – | Neutral | 256 (≈ 566 µM) | 256 (≈ 566 µM) | – | 128 (≈ 283 µM) | 128 (≈ 283 µM) | Positive | 22.2 | 77.4 | – | –
6 | COc1ccc(C2C(C#N)=C(N)Oc3cc(NS(=O)(=O)c4ccc(NC(C)=O)cc4)ccc32)cc1OC (centres unmarked) [9b, N-[4-[2-amino-3-cyano-4-(3,4-dimethoxy-phenyl)-4H-chromene-7-ylsulfamoyl]-phenyl}-acetamide] | 234 (≈ 450 µM) | – | Negative | > 512 | > 512 | – | 256 (≈ 492 µM) | 256 (≈ 492 µM) | neutral or negative; also recorded: Neutral | – | – | 235 to 238 | –
7 | Cc1noc(NS(=O)(=O)c2ccc(N)cc2)c1C [Sulfisoxazole, reference compound] | 218 (≈ 816 µM) | – | – | – | 256 (≈ 958 µM) | – | – | 256 (≈ 958 µM) | – | – | – | – | neither Sulfisoxazole nor Gentamicin demonstrated apoptotic effects
8 | N#CC1=C(N)Oc2cc(NS(=O)(=O)c3ccccc3)ccc2C1c1ccccc1F (centres unmarked) [11b, N-(2-amino-3-cyano-4-(2-fluorophenyl)-4H-chromen-7-yl) benzenesulfonamide] | 162 (≈ 384 µM) | – | Neutral | 256 (≈ 607 µM) | 256 (≈ 607 µM) | – | 256 (≈ 607 µM) | 256 (≈ 607 µM) | neutral or negative; also recorded: Neutral | – | – | 122 to 125 | –
9 | CC(=O)Nc1ccc(S(=O)(=O)Nc2ccc3c(c2)OC(N)=C(C#N)C3c2ccccc2)cc1 (centres unmarked) [5b, N-[4-(2-amino-3-cyano-4-phenyl-4H-chromen-7-ylsulfamoyl)-phenyl]-acetamide] | 173 (≈ 376 µM) | – | Positive | 128 (≈ 278 µM) | 128 (≈ 278 µM) | – | 128 (≈ 278 µM) | 128 (≈ 278 µM) | Positive | – | – | 240 to 243 | –
10 | CC(=O)Nc1ccc(S(=O)(=O)Nc2ccc3c(c2)OC(N)=C(C#N)C3c2cccc(Oc3ccccc3)c2)cc1 (centres unmarked) [6b, N-[4-[2-amino-3-cyano-4-(3-phenoxy-phenyl)-4H-chromene-7-ylsulfamoyl]-phenyl}-acetamide] | 114 (≈ 206 µM) | robust antibacterial effect | Neutral | 256 (≈ 463 µM) | 256 (≈ 463 µM) | robust antibacterial effect | 64 (≈ 116 µM) | 64 (≈ 116 µM) | Positive | 53.85 | 46 | – | –
11 | CC(=O)Nc1ccc(S(=O)(=O)Nc2ccc3c(c2)OC(N)=C(C#N)C3c2ccc(F)cc2)cc1 (centres unmarked) [7b, N-[4-[2-amino-3-cyano-4-(4-fluoro-phenyl)-4H-chromene-7-ylsulfamoyl]-phenyl}-acetamide] | 182 (≈ 380 µM) | – | Positive | 128 (≈ 267 µM) | 128 (≈ 267 µM) | – | 128 (≈ 267 µM) | 128 (≈ 267 µM) | Positive | – | – | 230 to 233 | –
12 | CSc1ccc(C2C(C#N)=C(N)Oc3cc(NS(=O)(=O)c4ccccc4)ccc32)cc1 (centres unmarked) [10b, N-(2-amino-3-cyano-4-(4-(methylthio)phenyl)-4H-chromen-7-yl)benzenesulfonamide] | 247 (≈ 549 µM) | – | Negative | > 512 | > 512 | – | 256 (≈ 569 µM) | 256 (≈ 569 µM) | neutral or negative; also recorded: Neutral | – | – | 135 to 138 | –
13 | COc1ccc(C2C(C#N)=C(N)Oc3cc(NS(=O)(=O)c4ccc(C)cc4)ccc32)cc1OC (centres unmarked) [3b, N-[2-amino-3-cyano-4-(3,4-dimethoxy-phenyl)-4H-chromene-7-yl]-4-methyl-benzene sulfonamide] | 219 (≈ 459 µM) | – | Negative | > 512 | > 512 | – | > 512 | > 512 | neutral or negative; also recorded: Negative | – | – | 127 to 130 | –

From paper PMC11150261, “Evaluation of antibacterial, cytotoxicity, and apoptosis activity of novel chromene-sulfonamide hybrids synthesized under solvent-free conditions and 3D-QSAR modeling studies” (Scientific Reports, 2024)
